Assay results: PubChem BioAssay AID1259407 (Chemical Carcinogenesis Research Information System (CCRIS), 2018)
Calls of active or inactive are those of the source. The rule behind the calls is not given here.

Test system: CCRIS mutagenicity, Ames/micronucleus/aberration tests
Test: CCRIS mutagenicity studies
[1] = Test System: AMES SALMONELLA TYPHIMURIUM, Strain/Indicator: TA98, Metabolic Activation: NONE, Method: PREINCUBATION
[2] = Test System: AMES SALMONELLA TYPHIMURIUM, Strain/Indicator: TA100, Metabolic Activation: NONE, Method: PREINCUBATION
[3] = Test System: AMES SALMONELLA TYPHIMURIUM, Strain/Indicator: TA1535, Metabolic Activation: NONE, Method: PREINCUBATION
[4] = Test System: AMES SALMONELLA TYPHIMURIUM, Strain/Indicator: TA100, Metabolic Activation: NONE, Method: STANDARD PLATE
[5] = Test System: AMES SALMONELLA TYPHIMURIUM, Strain/Indicator: TA98, Metabolic Activation: RAT, LIVER, S-9, AROCLOR 1254, Method: STANDARD PLATE
[6] = Test System: AMES SALMONELLA TYPHIMURIUM, Strain/Indicator: TA98, Metabolic Activation: NONE, Method: STANDARD PLATE

Measured: mutagenic call

NC1=CC(=O)C(=O)c2ccccc21
active: Test System: AMES SALMONELLA TYPHIMURIUM, Strain/Indicator: TA97, Metabolic Activation: NONE, Method: PREINCUBATION active; positive | Test System: AMES SALMONELLA TYPHIMURIUM, Strain/Indicator: TA97, Metabolic Activation: RAT, LIVER, S-9, PHENOBARBITAL AND 5,6-BENZOFLAVONE, Method: PREINCUBATION active; positive | Test System: AMES SALMONELLA TYPHIMURIUM, Strain/Indicator: TA98, Metabolic Activation: RAT, LIVER, S-9, PHENOBARBITAL AND 5,6-BENZOFLAVONE, Method: PREINCUBATION active; positive | [2] active; positive | Test System: AMES SALMONELLA TYPHIMURIUM, Strain/Indicator: TA100, Metabolic Activation: RAT, LIVER, S-9, PHENOBARBITAL AND 5,6-BENZOFLAVONE, Method: PREINCUBATION active; positive | Test System: AMES SALMONELLA TYPHIMURIUM, Strain/Indicator: TA104, Metabolic Activation: NONE, Method: PREINCUBATION active; positive | Test System: AMES SALMONELLA TYPHIMURIUM, Strain/Indicator: TA104, Metabolic Activation: RAT, LIVER, S-9, PHENOBARBITAL AND 5,6-BENZOFLAVONE, Method: PREINCUBATION active; positive | Test System: AMES SALMONELLA TYPHIMURIUM, Strain/Indicator: TA1537, Metabolic Activation: RAT, LIVER, S-9, PHENOBARBITAL AND 5,6-BENZOFLAVONE, Method: PREINCUBATION active; positive | Test System: AMES SALMONELLA TYPHIMURIUM, Strain/Indicator: TA2637, Metabolic Activation: NONE, Method: PREINCUBATION active; positive | Test System: AMES SALMONELLA TYPHIMURIUM, Strain/Indicator: TA2637, Metabolic Activation: RAT, LIVER, S-9, PHENOBARBITAL AND 5,6-BENZOFLAVONE, Method: PREINCUBATION active; positive
inactive: [1] inactive; negative | Test System: AMES SALMONELLA TYPHIMURIUM, Strain/Indicator: TA102, Metabolic Activation: NONE, Method: PREINCUBATION inactive; negative | Test System: AMES SALMONELLA TYPHIMURIUM, Strain/Indicator: TA102, Metabolic Activation: RAT, LIVER, S-9, PHENOBARBITAL AND 5,6-BENZOFLAVONE, Method: PREINCUBATION inactive; negative | [3] inactive; negative | Test System: AMES SALMONELLA TYPHIMURIUM, Strain/Indicator: TA1535, Metabolic Activation: RAT, LIVER, S-9, PHENOBARBITAL AND 5,6-BENZOFLAVONE, Method: PREINCUBATION inactive; negative | Test System: AMES SALMONELLA TYPHIMURIUM, Strain/Indicator: TA1537, Metabolic Activation: NONE, Method: PREINCUBATION inactive; negative | Test System: AMES SALMONELLA TYPHIMURIUM, Strain/Indicator: TA1538, Metabolic Activation: NONE, Method: PREINCUBATION inactive; negative | Test System: AMES SALMONELLA TYPHIMURIUM, Strain/Indicator: TA1538, Metabolic Activation: RAT, LIVER, S-9, PHENOBARBITAL AND 5,6-BENZOFLAVONE, Method: PREINCUBATION inactive; negative

Cc1ccc(C(=O)ON(OCc2ccccc2)C(=O)c2ccccc2)cc1
active: [4] active; positive | Test System: AMES SALMONELLA TYPHIMURIUM, Strain/Indicator: TA100, Metabolic Activation: RAT, S-9, AROCLOR, Method: STANDARD PLATE active; positive

O=[N+]([O-])c1cc(O)c2ccc3cccc4ccc1c2c34
active: Test System: AMES SALMONELLA TYPHIMURIUM, Strain/Indicator: TA98(1,8-DNP6), Metabolic Activation: NONE, Method: PREINCUBATION active; positive | Test System: AMES SALMONELLA TYPHIMURIUM, Strain/Indicator: TA98(1,8-DNP6), Metabolic Activation: NONE, Method: STANDARD PLATE active; positive | Test System: AMES SALMONELLA TYPHIMURIUM, Strain/Indicator: TA98(1,8-DNP6), Metabolic Activation: RAT, LIVER, S-9, AROCLOR 1254, Method: STANDARD PLATE active; positive | Test System: AMES SALMONELLA TYPHIMURIUM, Strain/Indicator: TA98(NR), Metabolic Activation: NONE, Method: PREINCUBATION active; positive | Test System: AMES SALMONELLA TYPHIMURIUM, Strain/Indicator: TA98(NR), Metabolic Activation: NONE, Method: STANDARD PLATE active; positive | Test System: AMES SALMONELLA TYPHIMURIUM, Strain/Indicator: TA98(NR), Metabolic Activation: RAT, LIVER, S-9, AROCLOR 1254, Method: STANDARD PLATE active; positive | [1] active; positive | Test System: AMES SALMONELLA TYPHIMURIUM, Strain/Indicator: TA98, Metabolic Activation: RAT, LIVER, S-9, AROCLOR 1254, Method: PREINCUBATION active; positive | [5] active; positive | [2] active; positive | Test System: AMES SALMONELLA TYPHIMURIUM, Strain/Indicator: TA100, Metabolic Activation: RAT, LIVER, S-9, AROCLOR 1254, Method: PREINCUBATION active; positive | Test System: AMES SALMONELLA TYPHIMURIUM, Strain/Indicator: YG1024, Metabolic Activation: NONE, Method: STANDARD PLATE active; positive | Test System: AMES SALMONELLA TYPHIMURIUM, Strain/Indicator: YG1024, Metabolic Activation: RAT, LIVER, S-9, AROCLOR 1254, Method: STANDARD PLATE active; positive | Test System: CHINESE HAMSTER OVARY, Strain/Indicator: CHO (HGPRT)/6-THIOGUANINE, Metabolic Activation: RAT, LIVER, S-9, AROCLOR 1254, Method: STANDARD PLATE active; positive
inactive: Test System: CHINESE HAMSTER OVARY, Strain/Indicator: CHO (HGPRT)/6-THIOGUANINE, Metabolic Activation: NONE, Method: STANDARD PLATE inactive; negative | Test System: UDS RODENT HEPATOCYTES, Strain/Indicator: THY INCORP, Metabolic Activation: NONE, Method: AUTORADIOGRAPHY inactive; negative

c1ccc(CCC2CO2)cc1 (configuration not stated)
active: [2] active; positive | [4] active; positive | [3] active; positive | Test System: AMES SALMONELLA TYPHIMURIUM, Strain/Indicator: TA1535, Metabolic Activation: NONE, Method: STANDARD PLATE active; positive

CC(O)CN(CCN(CC(C)O)CC(C)O)CC(C)O (configuration not stated)
inactive: Test System: AMES SALMONELLA TYPHIMURIUM, Strain/Indicator: TA97, Metabolic Activation: NONE, Method: STANDARD PLATE inactive; negative | Test System: AMES SALMONELLA TYPHIMURIUM, Strain/Indicator: TA97, Metabolic Activation: S-9, Method: STANDARD PLATE inactive; negative | [6] inactive; negative | Test System: AMES SALMONELLA TYPHIMURIUM, Strain/Indicator: TA98, Metabolic Activation: S-9, Method: STANDARD PLATE inactive; negative | [4] inactive; negative | Test System: AMES SALMONELLA TYPHIMURIUM, Strain/Indicator: TA100, Metabolic Activation: S-9, Method: STANDARD PLATE inactive; negative | Test System: AMES SALMONELLA TYPHIMURIUM, Strain/Indicator: TA102, Metabolic Activation: NONE, Method: STANDARD PLATE inactive; negative | Test System: AMES SALMONELLA TYPHIMURIUM, Strain/Indicator: TA102, Metabolic Activation: S-9, Method: STANDARD PLATE inactive; negative | Test System: E.COLI, Strain/Indicator: WP2 (PKM101), Metabolic Activation: NONE, Method: STANDARD PLATE inactive; negative | Test System: E.COLI, Strain/Indicator: WP2 (PKM101), Metabolic Activation: S-9, Method: STANDARD PLATE inactive; negative

C1=Cc2cc3c4ccccc4ccc3c3cccc1c23
inactive: [6] inactive; negative | Test System: AMES SALMONELLA TYPHIMURIUM, Strain/Indicator: TA1535, Metabolic Activation: RAT, LIVER, S-9, AROCLOR 1254, Method: STANDARD PLATE inactive; negative
active: Test System: AMES SALMONELLA TYPHIMURIUM, Strain/Indicator: TA98, Metabolic Activation: RAT, LIVER, S-9, AROCLOR 1254 (0.127 OR 1.27 MG S-9 PROTEIN), Method: STANDARD PLATE active; positive | [5] active; positive | Test System: AMES SALMONELLA TYPHIMURIUM, Strain/Indicator: TA100, Metabolic Activation: RAT, LIVER, S-9, AROCLOR 1254, Method: STANDARD PLATE active; positive | Test System: AMES SALMONELLA TYPHIMURIUM, Strain/Indicator: TA1537, Metabolic Activation: RAT, LIVER, S-9, AROCLOR 1254, Method: STANDARD PLATE active; positive | Test System: AMES SALMONELLA TYPHIMURIUM, Strain/Indicator: TA1538, Metabolic Activation: RAT, LIVER, S-9, AROCLOR 1254, Method: STANDARD PLATE active; positive
